Measurements reported in patent US20110070171A1, “1-tert-Butylcyclohexanecarboxamide and uses thereof as cooling compounds” (priority 2009, published 2011).

Tests used:
Assay type in all cases: in vivo
[1] = Flavor evaluation, tasted in water; conditions: tasted in water at 10 ppm
Excerpt: Based on this flavor evaluation, it is indicative that the Structure I and Structure II of our invention are useful for augmenting, enhancing or imparting a taste or cooling or refreshing effect in or to a cosmetic, skin care product, lip gloss, hair care product, cologne, shaving balm, after-shave lotion, dairy product, fruit ice preparation, confectionery, mouth and throat lozenges, cough mixtures, decongestants, antacids, oral analgesics or other medicinal products, chewing gum, candy (including hard candy and soft candy), fondants, toothpaste, mouthwashes, mineral water, alcoholic beverage, non-alcoholic beverage, powdered beverage, or other foodstuff as a result of adding to a cosmetic, skin care product, lip gloss, hair care product, cologne, shaving balm, after-shave lotion, dairy product, fruit ice preparation, confectionery, lozenges, cough mixtures, decongestants, antacids, oral analgesics or other medicinal product, chewing gum, candy, fondants, toothpaste, mouthwashes, mineral water, alcoholic beverage, non-alcoholic beverage, powdered beverage, or other foodstuff, a taste or cooling or refreshing effect augmenting, enhancing or imparting quantity and concentration of Structure I and Structure II.

[2] = Evaluation of cooler mixed with fondant
Excerpt: In this example, the Structure I and II were mixed with a fondant, commercially available from Confectionary House, Troy, N.Y., at levels listed in Table 1.

[3] = Chewing gum profiled by trained descriptive analysis panel; conditions: level 0.20%
Protocol: The following gum base formulation was prepared: […]
The orange flavor is commercially available from IFF. The gum base, Hades-T is commercially available from Cafosa Gum, Barcelona Spain.
Structure I and II by itself at levels detailed in the Tables below was blended with the gum base in a Sigma mixer. The resultant chewing gum blend was then manufactured into strips 1 inch in width and 0.1 inches in thickness. These strips were cut into lengths of 3 inches each.
Samples were profiled by a highly trained descriptive analysis panel. The ballot consisted of the following terms: Total impact, total mint, cooling-mouth closed, cooling-breath in, nasal cooling—breathe in, throat irritation, bitterness, tongue irritation, numbing. Each attribute was rated at discrete time points including 1 minute, 3 minutes, 5 minutes, 10 minutes, 20 minutes, and 30 minutes.

Row | Compound | Taste description (cooling) [1] | COMMENTS (cooling evaluation in fondant) ([2]; 50 ppm) | COMMENTS (cooling evaluation in fondant) ([2]; 200 ppm) | Time and Evaluation (cooling in chewing gum) ([3]; 0-1 min) | Time and Evaluation (cooling in chewing gum) ([3]; 1-3 min) | Time and Evaluation (cooling in chewing gum) ([3]; 3-5 min) | Time and Evaluation (cooling in chewing gum) ([3]; 5-10 min) | Time and Evaluation (cooling in chewing gum) ([3]; 10-20 min) | Time and Evaluation (cooling in chewing gum) ([3]; 20-30 min)
1 | CC(C)(C)C1(C(=O)NC2CC2)CCCCC1 [Structure I, 1-tert-butyl-N-cyclopropylcyclohexanecarboxamide] | gradual onset cooling | Slight irritation in rear of throat, slight cooling | Moderate cooling, consistent, and slight tingle. | – | – | – | – | – | –
2 | COCCNC(=O)C1(C(C)(C)C)CCCCC1 [Structure II, 1-tert-butyl-N-[2-methoxy-ethyl]cyclohexanecarboxamide] | wet cardboard, slightly cooling | Slight bitterness, very little cooling. | Good Cooling low to moderate, slight throat | no perceivable cooling slightly bitter, | Slight cooling with slight tingle on tongue | full mouth cooling not very intense, slight | slight residual cooling very weak | still slight cooling, slight tingle | cooling diminished very weak, very mild
